Starred links: 1 amine or outer side, 2 acyl side, 3 side chain; linkers in the order of their positions; H or OH if unused. Non-standard residues stand in square brackets, D forms with d. Residues, ends and D or L forms follow the SMILES beside them. Phe(2-Me) = Cc1ccccc1C[CH](N)C(=O)O; X2 = CC(F)(F)CC(N[*:1])C(=O)[*:2]; Suc = O=C(CCC(=O)[*:2])[*:1]; Tle = CC(C)(C)[CH](N)C(=O)O

Regarding `CCCCCCCCCCCCNC(=O)c1cccc(Sc2c(Nc3cc(C(=O)NCCCCCCCCCCCC)ccc3Cl)nn(-c3c(Cl)cc(Cl)cc3Cl)c2OS(=O)(=O)c2ccccc2)c1`, the melting point lay within 112 to 114 °C. Then `O=C(O)c1ccnc(F)c1`, with 195 to 197 °C. Compound `CC1c2cc(C(C)(C)C)cc(C(C)(C)C)c2OP(OP2Oc3c(cc(C(C)(C)C)cc3C(C)(C)C)C(C)c3cc(C(C)(C)C)cc(C(C)(C)C)c3O2)Oc2c1cc(C(C)(C)C)cc2C(C)(C)C` (configuration not stated) registered a melting point of 281 to 285 °C. In turn, `CC(C)(Cc1ccc(S(=O)(=O)CCc2c(CCNS(=O)(=O)Cc3ccc(Cl)c(Cl)c3)n(C(c3ccccc3)c3ccccc3)c3ccc(Cl)cc23)cc1)C(=O)O` gave a melting point of 207 to 208 °C.

In turn, `[C-]#[N+]C1(C)CN(C(=O)Nc2ccc(C(F)(F)F)cc2)N=C1c1ccc(Cl)cc1` (configuration not stated) displayed a melting point of 171 to 173 °C. The result for `C=CCN(CC=C)c1nc(NC(C)(C)CC(C)(C)C)nc(N(CCCCCCN(c2nc(NC(C)(C)CC(C)(C)C)nc(N(CC=C)CC=C)n2)C2CC(C)(C)NC(C)(C)C2)C2CC(C)(C)NC(C)(C)C2)n1` reads 113 to 115 °C. For the compound `CCCc1[nH]c2ccccc2c1C1(c2ccc(N(CC)CC)cc2OCCCCCCCCCCOc2cc(N(CC)CC)ccc2C2(c3c(CCC)[nH]c4ccccc34)OC(=O)c3ccccc32)OC(=O)c2ccccc21` (configuration not stated), the melting point fell in the range of 116 to 118 °C. Then `CC(CO)Nc1nc(Nc2ccc(S(C)(=O)=NS(=O)(=O)CC[Si](C)(C)C)cc2)ncc1Br` (mixture of isomers), with 194 to 197 °C. Then `CN(C(=O)Cc1c(-c2ccccc2)c2ccccc2c(=O)n1C)c1cc(C(F)(F)F)cc(C(F)(F)F)c1`, with 193 to 194 °C; and `CC(COC(=O)CCc1cc(C(C)(C)C)c(O)c(C(C)(C)C)c1)(COC(=O)CCc1cc(C(C)(C)C)c(O)c(C(C)(C)C)c1)COC(=O)CCc1cc(C(C)(C)C)c(O)c(C(C)(C)C)c1`, with 55 to 78 °C; and `CCCCCCCCCCCCOC(CCCCCCCCCCC)CCOC1C(NC(C)=O)C(OCC2OC(C(=O)O)C(NC(=O)CC(O)CCCCCCCCCCC)C(OCCC(O)CCCCCCCCCCC)C2O)OC(CO)C1OP(=O)(O)O` (configuration not stated), with 179 to 181 °C. For the compound `CCC(CO)Sc1nc(Nc2ccc(S(C)(=N)=O)cc2)ncc1Br` (mixture of isomers), the melting point lay within 175 to 180 °C. The result for `CC(C)(O)CCOc1c(-c2ccc(S(N)(=O)=O)cc2)cnn(-c2ccc(F)cc2)c1=O` reads 163 to 164 °C; that for `COC(=O)C(C)(C)NC(=O)Nc1ccc(Cl)cc1`, 135 to 136 °C; that for `CC(C#N)N1CCC(c2noc3cc(F)ccc23)CC1` (configuration not stated), 133 to 134 °C. Then `CN(CC(O)C(CC1CCCCC1)NC(=O)C(Cc1c[nH]cn1)NC(=O)C(CC(=O)C(C)(C)C)Cc1ccccc1)C(Cc1c[nH]cn1)NC(=O)C(CC(=O)C(C)(C)C)Cc1ccccc1` (configuration not stated), with 118 °C; and `CCOC(=O)c1cnc2c(c(C)nn2C)c1NCS(=O)(=O)c1ccc(Oc2ccc(Cl)cc2)cc1`, with 52 to 55 °C; and `Cc1ccc(OCC(=O)O)c(C(=O)NCc2ccc(Br)cc2F)c1`, with 145 to 146 °C. As for `O=C(Oc1ccc2c(OC(=O)c3ccc(OCc4ccccc4)cc3)c3cc(OC(=O)c4ccc(OCc5ccccc5)cc4)ccc3cc2c1)c1ccc(OCc2ccccc2)cc1`, the melting point lay in the range of 219 to 221 °C. The result for `CN(Cc1ccccc1)Cc1c(-c2ccc([N+](=O)[O-])cc2)sc2c1c(=O)n(-c1ccccc1)c(=O)n2Cc1c(F)cccc1F` reads 173 to 174 °C; that for `O=S(=O)(C(/C=C/c1ccc(Br)cc1)c1ccc(I)cc1)C(/C=C/c1ccc(Br)cc1)c1ccc(I)cc1` (configuration not stated), 217 to 219 °C. Then `O=C(O)Cc1cccc(-c2cc(CCCCc3ccc(OC4OC(CO)C(O)C(O)C4O)c(-c4cccc(CC(=O)O)c4)c3)ccc2OC2OC(CO)C(O)C(O)C2O)c1` (configuration not stated), with 195 to 197 °C. The result for `O=C(c1ccc(I)cc1)c1cc2c3c(c1)C(c1cccc(Cl)c1)CC(=O)N3CC2` (configuration not stated) reads 275 °C. Regarding `CCOC(=O)c1c(I)c(NS(=O)(=O)c2cccc3c(N(C)C)cccc23)c(I)c(N(CC)C(C)=O)c1I`, the melting point lay within 238 to 240 °C. Then `O=S(=O)(C(/C=C/c1c(F)c(F)c(F)c(F)c1F)c1c(F)c(F)c(F)c(F)c1F)C(/C=C/c1c(F)c(F)c(F)c(F)c1F)c1c(F)c(F)c(F)c(F)c1F` (configuration not stated), with 137 to 139 °C. Then `CC(C)C(OC(C(I)=C(I)I)C(C)C)C(I)=C(I)I` (configuration not stated), with 43.5 to 44 °C; and `NCC1Cc2cc(F)cc(-c3ccoc3)c2O1` (configuration not stated), with 236 to 239 °C.

In turn, `CN1C(C)(C)CC2(CC1(C)C)NC(=O)N(CC(O)COC(=O)CCCCCCCCCCC(=O)OCC(O)CN1C(=O)NC3(CC(C)(C)N(C)C(C)(C)C3)C1=O)C2=O` (configuration not stated) showed a melting point of 53 to 57 °C.

As to `CCCCCCCCCCCCS(=O)(=O)c1c(S(=O)(=O)CCCCCCCCCCCC)c(S(=O)(=O)CCCCCCCCCCCC)c(S(=O)(=O)CCCCCCCCCCCC)c(S(=O)(=O)CCCCCCCCCCCC)c1S(=O)(=O)CCCCCCCCCCCC`, the melting point is 60 °C. The compound `CCCCCCCCCCCCSc1c(SCCCCCCCCCCCC)c(SCCCCCCCCCCCC)c(SCCCCCCCCCCCC)c(SCCCCCCCCCCCC)c1SCCCCCCCCCCCC` returned a melting point of 44 to 45 °C. Then `CCOC(=O)[C@@H](CCC(=O)N1c2ccccc2C[C@H]1C(=O)OCC)NC(=O)[C@H](CCCCNSc1ncccc1[N+](=O)[O-])NC(=O)OCc1ccc2c(c1)OCO2`, with 130 to 135 °C; and `COc1cc(OC)c(/C=C/C(c2ccc(OC)c(NC(=O)C(C)OC(C)=O)c2)S(=O)(=O)C(/C=C/c2c(OC)cc(OC)cc2OC)c2ccc(OC)c(NC(=O)C(C)OC(C)=O)c2)c(OC)c1` (configuration not stated), with 179 to 180 °C.

In the case of `[C-]#[N+]C(C)C(=O)NCC1CC2CC(C1C)C2(C)C` (configuration not stated), the melting point lay in the range of 58 to 59 °C. Then `CNC(=O)[C@@H](NC(=O)[C@@H](NC(=O)c1c(I)c(NC(C)=O)c(I)c(C(=O)O)c1I)C(C)C)C(C)C`, with 247 to 248 °C; and `Ic1cc(NC2=NCCN2)cc2[nH]cnc12`, with 180 to 181 °C. Then `CCN(CC)CCN=S(=O)(c1ccccc1)c1ccco1` (configuration not stated), with 133 °C; and `CC(C)(C)OC(=O)CC[C@H](NC(=O)CNC(=O)[C@H](CSC(c1ccccc1)(c1ccccc1)c1ccccc1)NC(c1ccccc1)(c1ccccc1)c1ccccc1)C(=O)OC(C)(C)C`, with 98 to 110 °C.

With `COC(=O)CCc1ccc(N(c2ccc(-c3ccc(N(c4ccc(CCC(=O)OC)cc4)c4cccc5c4Cc4ccccc4-5)cc3)cc2)c2cccc3c2Cc2ccccc2-3)cc1`, the melting point is 127 to 129 °C. `CC(C)(C)OC(=O)N1CCN(c2ccc(C(=O)O)cc2)CC1` showed a melting point of 195 °C. With `Cc1ccccc1CC(NC(=O)C(CCC(=O)O)NC(=O)C(CC(=O)O)NC(=O)CCC(=O)O)C(=O)NC(C(=O)NC(CC(C)C)C(=O)NC(C=O)CC(C)(F)F)C(C)(C)C` (configuration not stated) (Suc-DE[Phe(2-Me)][Tle]L[X2]-aldehyde; configuration not given here), the melting point fell in the range of 128 to 130 °C. Then `CN(C)C(=O)c1cc2c(nc(C3CC3)n2C)c(O)c1CCC(O)c1ccccc1` (configuration not stated), with 92 to 94 °C; and `CC(=O)Nc1cc(COC2OC(COC(=O)c3ccc(Cl)cc3)C(OC3OC4COC(c5ccccc5)OC4C(OC(C)=O)C3OC(C)=O)C(OC(C)=O)C2OC(C)=O)ccc1Cl` (configuration not stated), with 114 to 115 °C. The result for `COc1cc(OC)c(/C=C/C(c2ccc(OC)c(NC(=O)COC(C)=O)c2)S(=O)(=O)C(/C=C/c2c(OC)cc(OC)cc2OC)c2ccc(OC)c(NC(=O)COC(C)=O)c2)c(OC)c1` (configuration not stated) reads 192 to 194 °C; that for `CC(=O)OC1C(O)C(C)OC(OC2C(OC(=O)C3CCC4C(C3)OC3(CC(OC(=O)C=Cc5ccccc5)C(C)CO3)C43CO3)OC(C)C(O)C2OC(C)=O)C1O` (configuration not stated), 125 to 127 °C. The result for `CC[C@H](C)CNC(=O)[C@@H](C[C@H](O)[C@H](CC1CCCCC1)NC(=O)[C@H](Cc1cscn1)NC(=O)[C@@H](CC(=O)N1CCOCC1)Cc1cccc2ccccc12)C(C)(C)O` reads 102 to 105 °C. Take `Cc1cc(C)c(N2c3ccccc3S(=O)(=O)c3cc(C=Cc4ccc(-c5ccc(C=Cc6ccc7c(c6)S(=O)(=O)c6ccccc6N7c6c(C)cc(C)cc6C)cc5)cc4)ccc32)c(C)c1`: the melting point was over 350 °C. The result for `FC(F)(F)C(F)(F)C(F)(F)C(F)(F)C(F)(F)C(F)(F)C(F)(F)C(F)(F)CCC1(CCC(F)(F)C(F)(F)C(F)(F)C(F)(F)C(F)(F)C(F)(F)C(F)(F)C(F)(F)F)c2ccccc2-c2ccccc21` reads 87 to 88 °C; that for `CC(C)=CCC/C(C)=C/CC/C(C)=C/CC/C=C(\C)CC/C=C(\C)CCC=C(C)C`, -5 °C; that for `CC(C)(C)c1cc(Cc2cc(C(C)(C)C)cc(C(C)(C)C)c2Op2oc3c(C(C)(C)C)cc(C(C)(C)C)cc3c3cc(C(C)(C)C)cc(C(C)(C)C)c3o2)c(O)c(C(C)(C)C)c1`, 195 to 205 °C. The result for `N#Cc1cccc(N2CCOCC2)c1` reads 105 °C; that for `COc1cc(OC)c(/C=C/C(c2ccc(OC)c(NC(=O)C(C)(C)O)c2)S(=O)(=O)C(/C=C/c2c(OC)cc(OC)cc2OC)c2ccc(OC)c(NC(=O)C(C)(C)O)c2)c(OC)c1` (configuration not stated), 198 to 199 °C. The compound `[C-]#[N+]CCC(O)COc1ccc(C(C)(C)C)cc1` (configuration not stated) gave a melting point of 69 to 72 °C. Then `Brc1cc(C(Br)(Br)C(Br)(Br)C(Br)(Br)c2ccccc2)c(Br)c(Br)c1Br`, with 309 to 311 °C; and `CC(C)c1oncc1S(=O)(=O)c1ccc(O)cc1`, with 129 to 131 °C. The result for `CCCCCCCCCCCCCCCc1cccc(Oc2ccccc2SSc2ccccc2Oc2cccc(CCCCCCCCCCCCCCC)c2)c1` reads 89 to 90 °C. Then `O=C(O)Cc1cccc(-c2cc(CCCC(=O)N3CCC(CCCC4CCN(C(=O)CCCc5ccc(OC6OC(CO)C(O)C(O)C6O)c(-c6cccc(CC(=O)O)c6)c5)CC4)CC3)ccc2OC2OC(CO)C(O)C(O)C2O)c1` (configuration not stated), with 119 to 121 °C. Regarding `C=CC(CC(O)C(CC1CCCCC1)NC(=O)C(Cc1c[nH]cn1)NC(=O)C(Cc1ccccc1)NC(=O)CN(CCNC(=O)OC(C)(C)C)C(=O)OC(C)(C)C)C(C)C` (configuration not stated), the melting point amounted to 109 °C.

What is called melting point is the temperature of the solid-liquid transition.
